Test results as given in US20090054240A1, “Heteroaroyl-substituted Alanines” (BASF SE, priority 2006, published 2009).

Experiments:
lambsquarters = assay: greenhouse post-emergence herbicidal test; type: in vivo, Chenopodium album; details: application rate 1.0 kg/ha a.s.
Text: (§1) The seeds of the test plants were sown separately for each species. For the post-emergence treatment, the test plants were first grown to a height of 3 to 15 cm, depending on the plant habit, and only then treated with the active ingredients which had been suspended or emulsified in water. For this purpose, the test plants were either sown directly and grown in the same containers, or they were first grown separately as seedlings and transplanted into the test containers a few days prior to treatment. The rate of application for the post-emergence treatment was 1.0 kg/ha of a.s. (active substance). Depending on the species, the plants were kept at 10-25° C. or 20-35° C. The test period extended over 2 to 4 weeks. During this time, the plants were tended, and their response to the individual treatments was evaluated. Evaluation was carried out using a scale from 0 to 100. 100 means no emergence of the plants, or complete destruction of at least the aerial parts, and 0 means no damage, or normal course of growth. The plants used in the greenhouse experiments belonged to the following species: [table]

green foxtail = assay: greenhouse post-emergence herbicidal test; type: in vivo, Setaria viridis; details: application rate 1.0 kg/ha a.s.
Text: as §1

pig weed = assay: greenhouse post-emergence herbicidal test; type: in vivo, Amaranthus retroflexus; details: application rate 1.0 kg/ha a.s.
Text: as §1

Row | SMILES | melting point [°C] | post-emergence action against lambsquarters (lambsquarters) | post-emergence action against green foxtail (green foxtail) | post-emergence action against pig weed (pig weed)
1 | CNC(=O)[C@H](CN)NC(=O)c1cn(C)nc1C(F)(F)F [Compound 3.6, N-[(1S)-1-(Aminomethyl)-2-(methylamino)-2-oxoethyl]-1-methyl-3-(trifluoromethyl)-1H-pyrazole-4-carboxamide] | 127 | – | – | –
2 | CNC(=O)[C@H](CNC(=O)OC)NC(=O)c1cn(C)nc1C(F)(F)F [Compound 3.10, O-Methyl N-[(2S)-3-(methylamino)-2-({[1-methyl-3-(trifluoromethyl)-1H-pyrazol-4-yl]carbonyl}amino)-3-oxopropyl]carbamate] | 205 | very good | very good | very good
3 | CNC(=O)[C@H](CNC(=O)OC(C)(C)C)NC(=O)c1cn(C)nc1C(F)(F)F [Compound 3.11, O-tert-Butyl N-[(2S)-3-(methylamino)-2-({[1-methyl-3-(trifluoromethyl)-1H-pyrazol-4-yl]carbonyl}amino)-3-oxopropyl]carbamate] | 78 | – | – | –
